From PMC6527222 (PLoS ONE, 2019)
Where “and” joins values, the source holds several entries; their conditions need not be identical. Identical values can stand only once. Like-named read-outs stand apart in the source and are kept apart here.

Tests used:
[1] = molecular target: α1D-AR; details: read-out: Kd towards the α1D-AR; cited from earlier work
[2] = system: JB6 P+ cells; details: previous data, cited from earlier work
[3] = system: JB6 P+ cells; assay: Anchorage-independent growth assay in soft agar (EGF-induced JB6 P+ colony formation); format: cell-based, mouse
Experimental: Ten ng/mL EGF was used to promote the anchorage-independent growth of JB6 cells. […] Plates were incubated at 37°C, 5% CO2 for 14 days. Colonies with greater than ten cells were counted manually under a microscope. […] Normalization allowed for comparison of data over a range of JB6 P+ cell cultures, passages, and experimental time for the shRNA studies, as well as control for variation in the EGF response, and importantly allowed for a direct comparison to all concentration-response experiments including the toxicity assays. […] All group sizes were determined via previous studies to provide statistically meaningful data. In the soft agar assays, key results were repeated with different JB6 P+ cells to confirm the results. Similarly, the shRNA studies were conducted with three independent concentration-response curves with different JB6 P+ cell stocks. […] For two sample comparisons a t-test was utilized, and when comparing multiple samples a One-, Two-, or Three-Factor ANOVA followed by Tukey-Kramer post hoc test was utilized depending on the data. For all tests, statistical difference was donated when p < 0.05. […] The I[…]*PSD is expressed in x-axis units (log [M]) as is an IC50 and it represents the first concentration where it is expected to observe a statistical decrease in the measured signal. […] Using the formula provided by GraphPad Prism or a straight line for the point-to-point graphs, the X-axis value for point Y was determined. The error is ascribed to this measurement via adding and subtracting the pooled standard deviation (PSD) to/from point Y generating point Y ± PSD. The two new points were then transformed to the X-axis units as was done for point Y creating an asymmetric error in sigmoidal plots. When the error was asymmetric, the larger error value was chosen to err on the conservative side. See S1 Fig for a pictoral explination of the method. The data is presented as I[…]*PSD ± error.

[4] = system: JB6 P+ cells; assay: Modified seven-day soft agar assay in shRNA lentivirus infected JB6 P+ cells; format: cell-based, mouse; details: for IC50: Mus musculus
Experimental: Knockdown of the β2-AR via the Adrb2 shRNA lentivirus was examined via seeding 1x10^4 JB6 P+ cells/well of a 6-well plate in standard growth media (see above). 24 hr after seeding, the growth media was removed from attached cells and replaced with 2 ml EMEM containing 4% heat-inactivated FBS without antibiotics and […] polybrene. 1.5 ml lentiviral shRNA stocks of either Adrb2 or scrambled control were added to appropriate wells and plates were centrifuged at 1,000 g at room temperature for 1 hr. Following centrifugation, media was replaced with 3 ml EMEM lacking antibiotics and grown at 37°C. After 2, 3, 7, and 10 days of growth, cells were trypsinized, collected and centrifuged at 300g for 5 min. Cells were washed with 1 ml PBS, and RNA was extracted using Qiagen’s RNeasy Mini kit. RNA was reverse transcribed into cDNA using Applied Biosystems cDNA reverse transcription kit (Invitrogen) and stored at -20°C for future use.
β2-AR shRNA lentivirus infected JB6 P+ cells were utilized in modified anchorage-independent growth assays in soft agar. The procedure was shortened to seven days because the shRNA-mediated β2-AR knockdown persisted up to ten days. Infection of the cells occurred as described in the verification of effective shRNA-mediated β2-AR knockdown, and the cells were grown for three days, then they were added to the agar as described in the anchorage-independent growth assays in soft agar section. The colonies were counted after seven days in culture; thus, matching the ten days of β2-AR knockdown.

[5] = system: JB6 P+ cells; assay: MTS cell proliferation assay; format: cell-based, mouse; details: two weeks
Experimental: Cell viability was determined by the addition of MTS reagent according to the manufacturer’s protocol (Promega, Madison, WI) and absorbance was measured using a Bio-Tek μQuant plate reader with KCJunior software. […] Normalization allowed for comparison of data over a range of JB6 P+ cell cultures, passages, and experimental time for the shRNA studies, as well as control for variation in the EGF response, and importantly allowed for a direct comparison to all concentration-response experiments including the toxicity assays. Data are expressed as mean ± SD and were analyzed using GraphPad Prism version 7.02 (La Jolla, CA). All group sizes were determined via previous studies to provide statistically meaningful data. In the soft agar assays, key results were repeated with different JB6 P+ cells to confirm the results. Similarly, the shRNA studies were conducted with three independent concentration-response curves with different JB6 P+ cell stocks. Statistical analysis of raw data was conducted with NCSS 2007 (Kaysville, UT). For two sample comparisons a t-test was utilized, and when comparing multiple samples a One-, Two-, or Three-Factor ANOVA followed by Tukey-Kramer post hoc test was utilized depending on the data. For all tests, statistical difference was donated when p < 0.05.

Question: Which Kd [1] does the source give for `COc1ccccc1OCCNCC(O)COc1cccc2[nH]c3ccccc3c12` (centres unmarked) [Carvedilol] here?
Answer: The Kd was 1.2 nM.

Question: What about the “effect on EGF-mediated transformation of JB6 P+ cells, words” value [2] of the same compound?
Answer: The value was “completely prevents”.

Question: What about the IC50 ([2]; read-out: IC50, inhibition of EGF-mediated transformation) of the same compound?
Answer: Its IC50 is 782 nM.

Question: And the “Soft Agar Assay Log IC50” value ([3]; 10 ng/mL EGF, 14 days, negative log value)?
Answer: Its value is -6.61 ± 0.06 log [M].

Question: And the IC50 ([3]; Mus musculus, 336 h, 10 ng/mL EGF, 14 days, negative log value, read-out: Soft Agar Assay Log IC50 (converted))?
Answer: Its IC50 is 251 nM.

Question: What about the Emax ([3]; Mus musculus, efficacy of inhibition of colony formation, reported if non-toxic) of the same compound?
Answer: Its Emax is 94.7 ± 4.31%.

Question: What about the IC50 ([4]; 168 h, independent experiments 1-3, seven days, read-out: ardb2 shRNA Mean logIC50 (converted)) of the same compound?
Answer: The IC50 was 718 nM.

Question: And the IC50 ([4]; 168 h, scrambled control shRNA, three experiments combined (Fig 6B), seven days, read-out: LogIC50 (converted))?
Answer: Its IC50 is 813 nM.

Question: What about the IC50 ([4]; 168 h, β2-AR-targeted shRNA, three experiments combined (Fig 6B), seven days, read-out: LogIC50 (converted)) of the same compound?
Answer: The IC50 was 1000 nM.

Question: What about the IC50 ([4]; line Mean, read-out: Scrambled shRNA Mean logIC50, mean of three experiments (converted)) of the same compound?
Answer: Its IC50 is 714 nM.

Question: What about the IC50 ([4]; line Mean, read-out: ardb2 shRNA Mean logIC50, mean of three experiments (converted)) of the same compound?
Answer: The IC50 was 979 nM.

Question: What about the “ardb2 shRNA Mean logIC50” value ([4]; independent experiments 1-3, seven days) of the same compound?
Answer: The value was -5.965 log [M] and -5.917 log [M].

Question: What about the “toxicity (cell viability), words” value ([5]; 100 μM) of the same compound?
Answer: Its value is “maximum toxicity”.

Question: And the “toxicity (cell viability), words” value ([5]; concentrations lower than 10 μM)?
Answer: Its value is “did not affect cell viability”.
